Test results from patent publication US6486198B1, “Compounds and methods for the treatment of post traumatic stress disorder” (priority 1999, dated 2002).

Tested on: DSM-IV PTSD criterion B symptoms of nightmares and intrusions (intrusive recollections/flashbacks)
Assay: Naturalistic add-on/monotherapy topiramate trial in chronic PTSD patients; patient self-report of partial/full response of nightmares and intrusions (LOCF)
Type: in vivo, human
Excerpt: Thirty five (35) patients meeting DSM-IV criteria for chronic post-traumatic stress disorder (PTSD) were selected for a study of the effects of topiramate administration. […] The group with hallucinatory PTSD experienced auditory and/or visual hallucinations containing content specifically associated with identified traumatic events. Whether these were PTSD “flashbacks” or psychotic experiences were at times difficult to ascertain due to fluctuations in reality testing the hallucinations. For this reason, prior to being screened for PTSD, some patients had received psychiatric diagnoses of psychotic disorders despite meeting full diagnostic criteria for PTSD.
Topiramate was added naturalistically to existing pharmacotherapy (see Table 1 for concomitant medications at start of trial), starting at 25 mglday and increasing whenever possible by 25 to 50 mg/day every 3 to 4 days to clinical response. Target symptoms were DSM-IV PTSD criterion B symptoms of nightmares (N =24) and intrusions (intrusive recollections/flashbacks, N=35) involving re-experiencing of traumas. Definitions of improvement, as assessed from patient self-report, included “partial response” as “definite reduction in intensity and frequency of nightmares or intrusions”, and “full response” as “complete cessation of nightmares and intrusions for a sustained period”. Following the seminal observations, in order to systematically identify responsive symptoms, the next 17 patients completed a self-report scale, the PTSD Checklist—Civilian Version (PCL-C)15, at baseline and at 4 weeks after starting topiramate. The patients were instructed to complete the PCL-C for experiences corresponding to traumas consistent with DSM-IV criterion A for PTSD. Paired ttest scores for the PCL-C were calculated with Jandel SigmaStat® v. 2.0.
Response assessment, summarized in Table 4, used the Last Observation Carried Forward (LOCF) method, which includes all patients who entered the trial and their last reported condition while under active treatment. Overall, topiramate suppressed nightmares in 79% of patients ([…]; 5/28 partially), and intrusions in 86% (22/35 fully; 8/35 partially). Globally (i.e., in terms of suppression of both nightmares and intrusions), 22 patients (63%) reported a full response and 8 patients (23%) a partial response. Five patients discontinued without response, 1 at 5 days, and the remaining 4 after 4 weeks. The non-hallucinatory subgroup achieved a higher response rate (full: 79%; full/partial: 89%). All full responses occurred in the non-hallucinatory subgroup. Benefit usually occurred within 2 to 3 days of reaching an effective dose. A full response to topiramate was reported for 10 patients within 1 week of treatment, and for 3 additional patients by the third week of treatment.

[1] = Non-Hallucinatory PTSD, Non-Bipolar Disorder (N = 20)
[2] = Non-Hallucinatory PTSD, Non-Bipolar Disorder (N = 20), listed as topiramate
[3] = Patients with Hallucinatory PTSD (N = 7)
[4] = Patients with Hallucinatory PTSD (N = 7), listed as topiramate
[5] = Patients with Non-Hallucinatory PTSD, Total (N + 28)
[6] = Patients with Non-Hallucinatory PTSD, Total (N + 28), listed as topiramate

## CC1(C)O[C@@H]2[C@@H](CO[C@@]3(COS(N)(=O)=O)OC(C)(C)O[C@@H]23)O1 [Topiramate, 2,3:4,5-bis-O-(1-methylethylidene)-β-D-fructopyranose sulfamate]
[1]
  Suppression of nightmares (N = 24): 85%
  Suppression of nightmares, Full (number of patients): 10
  Suppression of nightmares, Partial (number of patients): 1
  Time to onset of response, Full, mean ± SD: 32.1 days
  Time to onset of response, Full, median: (10.0) days
  Time to onset of response, Partial, mean ± SD: 8.6 days
  Time to onset of response, Partial, median: (3.5) days
[2]
  Dosage of topiramate, Full response, mean ± SD: 48 ± 25.4 mg/day
  Dosage of topiramate, Full response, median: 50.0 mg/day
  Dosage of topiramate, Partial response (threshold dosage), mean ± SD: 30 ± 11.2 mg/day
  Dosage of topiramate, Partial response, median: 25.0 mg/day
[3]
  Dosage of topiramate, Partial response (threshold dosage), mean ± SD: 70.0 ± 51.2 mg/day
  Dosage of topiramate, Partial response, median: (75.0) mg/day
  Suppression of intrusions (N = 35): 71% (5/7)
  Suppression of intrusions, Full (number of patients): 0
  Suppression of intrusions, Partial (number of patients): 5
  Suppression of nightmares (N = 24): 60% (3/5)
  Suppression of nightmares, Full (number of patients): 0
  Suppression of nightmares, Partial (number of patients): 3
  Time to onset of response, Partial, mean ± SD: 12.6 ± 15.7 days
  Time to onset of response, Partial, median: (7.0) days
[4]
  Dosage of topiramate, Partial response (threshold dosage), mean ± SD: 70.0 ± 51.2 mg/day
  Dosage of topiramate, Partial response, median: 75.0 mg/day
  Time to onset of response, Partial, mean ± SD: 13 ± 15.7 days
  Time to onset of response, Partial, median: 7.0 days
[5]
  Dosage of topiramate, Full response, mean ± SD: 78.6 mg/day
  Dosage of topiramate, Full response, median: (50.0) mg/day
  Dosage of topiramate, Partial response (threshold dosage), mean ± SD: 32.8 mg/day
  Dosage of topiramate, Partial response, median: (25.0) mg/day
  Suppression of intrusions (N = 35): 89%
  Suppression of intrusions, Full (number of patients): 22
  Suppression of intrusions, Partial (number of patients): 3
  Suppression of nightmares (N = 24): 84%
  Suppression of nightmares, Full (number of patients): 14
  Suppression of nightmares, Partial (number of patients): 2
  Time to onset of response, Full, mean ± SD: 35.3 days
  Time to onset of response, Full, median: (8.0) days
  Time to onset of response, Partial, mean ± SD: 10.3 days
  Time to onset of response, Partial, median: (4.0) days
[6]
  Time to onset of response, Partial, mean ± SD: 10 ± 12.7 days
  Time to onset of response, Partial, median: 4.0 days
All 35 patients
  Global full response rate (suppression of both nightmares and intrusions): 63%
  Global full response, number of patients: 22 patients
  Global partial response rate: 23%
  Global partial response, number of patients: 8 patients
All patients
  Response rate, full/partial: 86%
By the third week
  Additional patients reporting a full response by the third week of treatment: 3 patients
Hallucinatory group
  Response rate, full: 0%
  Response rate, partial: 83%
non-hallucinatory subgroup
  Response rate, full: 79%
  Response rate, full/partial: 89%
Within 1 week of treatment
  Patients reporting a full response within 1 week of treatment: 10 patients
